According to patent US20150174158A1, “[…] NITRIC OXIDE FOR TREATING RESPIRATORY DISEASES” (Advanced Inhalation Therapies (AIT) Ltd., priority 2012, published 2015):

Columns and labels:
[1] = system: human respiratory syncytial virus (rgRSV30); assay: RSV plaque assay after 30 min exposure to 160 ppm gNO; type: cell-based; conditions: single 30 min exposure to 160 ppm gNO; starting 500 PFU
Protocol: The efficacy of treating viral infection by respiratory syncytial virus by the methods presented herein was tested by exposure for 30 minutes of human respiratory syncytial virus (rgRSV30) to a gas mixture containing 160 ppm nitric oxide, using standard plaque assay as described hereinabove.
FIGS. 3A-D present the data obtained in the experiment using tissue culture samples harboring human rgRSV30, coupled to a green fluorescent protein, wherein the control experiment the samples were exposed to a ambient air (data not shown), and the tested samples having a starting viral level of 2000 PFU (FIG. 3A), 1000 PFU (FIG. 3B) and 500 PFU (FIG. 3C), were exposed to 160 ppm gNO for 30 minutes, whereas FIG. 3D presents a comparative bar plot comparing the control to test results.

[2] = system: Klebsiella sp. #2; conditions: 200 ppm gNO; saline; cited from earlier work
[3] = system: all microorganisms tested; conditions: 200 ppm gNO, cited from earlier work
[4] = Phase I safety study: hematology, blood chemistry, coagulation; type: in vivo, human; conditions: baseline 0.15 (SD=0.12); SD=0.19; p=0.104
Protocol: (§1) After obtaining informed consent, treatment was initiated within 5 days of enrollment. Subjects were housed in a hospital ward and received 160 ppm gNO for 30 minutes every four hours (Q4h), five times a day, for five consecutive days by inhalation. Subjects returned for follow-up evaluations 3, 7 and 21 days after the final gNO administration. Subject safety was determined by monitoring vital signs, methemoglobin levels, lung function, blood chemistry, hematology, prothrombin time, inflammatory cytokine/chemokines levels and endothelial activation. These parameters were compared to baseline and at various time-points during and after gNO administration.
Hematological assessment included a complete blood count and differentials (hemoglobin, hematocrit, red blood cell count, white blood cell count, white blood cell differential, and platelet count) were obtained in order to monitor blood chemistry, hematology and inflammation measurements. […] The effect of gNO on coagulation was determined by the prothrombin time (PT) and its derived measures of prothrombin ratio (PR) and international normalized ratio (INR). […] Plasma cytokine levels were assessed using the human inflammation cytokine bead array kit (BD Bioscience, Canada). Plasma levels of angiopoietin Ang-1 and Ang-2 were determined by ELISA (R&D Systems, USA).

[5] = system: influenza A/victoria/H3N2; conditions: 160 ppm gNO, cited from earlier work
[6] = system: methemoglobin (SpMet); assay: Phase I safety study: methemoglobin (SpMet) by pulse oximeter; type: in vivo, human
Protocol: as §1
The levels of gNO, NO2, O2 and methemoglobin were monitored during the administration of gNO. The target gas mixture was 160 ppm gNO with a nitrogen dioxide (NO2) level of less than 5 ppm and an oxygen (O2) level ranging from 21% to 25%. Inspiratory NO, NO2 and O2 levels were continuously monitored by sampling from the mouthpiece sample port located about 6 millimeters from the mouth of the subject with an AeroNOx (Pulmonox, AB, Canada) NO, NO2 and O2 electrochemical analyzer. Delivery safety was determined by the number of occasions that NO2 exceeded 5 ppm, gNO exceeding 10% variation and O2 dropping below 20% during gNO administration. A commercially available noninvasive pulse oximeter (Rad 57, Masimo Corporation, USA) was used to measure saturation levels at the periphery of methemoglobin (SpMet).
These parameters were measured continuously during every gNO administration course and for 3.5 hours after the first treatment of the day. Daily serum samples were collected and frozen at −80° C. and the serum […] level was measured using the Griess reagent.
FIGS. 4A-B present results of monitoring methemoglobin levels before, during and after inhalation of 160 ppm of gaseous nitric oxide by 10 healthy human individuals, undergone 5 gNO administration courses daily, each lasting 30 minutes, for 5 consecutive days, while methemoglobin levels were measured using a pulse oximeter, wherein FIG. 4A is a plot of methemoglobin levels by percents as a function of time as measured before (time point 0), during 250 individual 30 minutes gNO administration courses (time interval of 0 to 30 minutes), after the courses (time interval of 30 to 60 minutes) and at 120 minutes, 180 minutes and 240 minutes after gNO administration was discontinued, and FIG. 4B is a plot of methemoglobin levels by percents as a function of time as measured at the beginning and end of 30 minutes gNO administration courses given over the course of 5 days, and followed 8, 12 and 26 days after gNO administration was discontinued.

[7] = system: Mycobacterium; conditions: 200 ppm gNO; saline; cited from earlier work
[8] = system: P. aeruginosa and S. aureus; conditions: cited from earlier work
[9] = gNO concentrations below 200 ppm, 6 hours/day for 28 days; cited from earlier work
[10] = system: Pseudomonas aeruginosa pneumonia; conditions: 160 ppm gNO, intermittent 30 minute exposures; cited from earlier work

## [N]=O [gNO, nitric oxide]
[1]
  viral viability: substantially nullified
[2]
  LD100: 5 h
  Latent Period: 2 h
  −2.5 Log10: 4.1 hours
[3]; all microorganisms tested
  bactericidal effect: complete bactericidal effect
[3]; every bacteria challenged
  reduction in CFU/mL: ≥ 3 login CFU/mL
[4]
  eosinophil cell numbers, end of study: 0.19 giga/L
[5]
  infectivity (plaque formation): capable of reducing the infectivity
[5]; three 30 minute treatments Q4h vs one 30 minute dose
  anti-viral effect, intermittent vs single exposure: more evident in the intermittent form of exposure
[6]; 3, 7 and 21 days after final exposure
  residual increase in SpMet at follow-up: did not show any residual increase
[6]; after 30 min 160 ppm gNO
  time for SpMet to return to baseline: 3.5 h
[6]; end of the 30 minutes treatment, 160 ppm gNO, baseline 0.16 (SD=0.10)
  highest SpMet: 2.5%
[6]; five daily treatments for five consecutive days
  accumulative effect on SpMet: no accumulative or lingering effect
[6]; single 30 min treatment course, 160 ppm gNO, SD=0.08
  average increase of SpMet: 0.9%
[7]
  LD100: 10 h
  Latent Period: 7 h
  −2.5 Log10: 9.2 hours
[8]; 50-160 ppm gNO vs medical air, agar plates
  survival (downward bactericidal trend): 5-10%
[8]; gNO greater than 120 ppm
  time required to achieve >90% reduction of colony formation: 8 to 12 h
[8]; levels of gNO greater than 120 ppm, agar plates
  reduction of colony formation: greater than 90%
[9]
  deaths: No deaths occurred
[10]
  pulmonary bioburden and leukocyte infiltration: effective to reduce the pulmonary bioburden and leukocyte infiltration
